Measured values as given in US10556900B2, “TrkA kinase inhibitors, compositions and methods thereof” (Merck Sharp & Dohme Corp., priority 2015, dated 2020).

target: human TrkA receptor (Homo sapiens (Human), UniProt P04629); assay: TrkA functional activity, DiscoverX PathHunter assay (NGF-stimulated U2OS cells); type: cell-based; details: U2OS cells expressing human TrkA-Prolink, Shc1-EA and p75NTR; compound 1 h, then NGF (~80% of maximal response) 3 h; luminescence
Experimental: TrkA functional activity was measured using a DiscoverX PathHunter assay. In this assay, U2OS cells express the human TrkA receptor as a fusion with the weakly complementing fragment of B-galactosidase, which DiscoverX calls “Prolink (PK)”; additionally, Shc1 is fused with a larger fragment, which is called “Enzyme Acceptor (EA)”. Activation of the TrkA receptor, upon NGF addition, results in the kinase domain being phosphorylated, resulting in subsequent recruitment of Shc1-EA protein. That recruitment results in an active B-galactosidase enzyme that is detected by addition of a chemiluminescent substrate. The human p75^NTR protein was also expressed as a co-receptor for NGF.
All reagents were purchased from DiscoverX, except for the receptor agonists (NGF, BDNF, NT3) which were purchased from Peprotech. Cells were expanded and frozen into cryovials, and stored in the vapor phase of liquid nitrogen, and thawed immediately before use. Thawed cells were added to a 384-well plate at 7500 cells/well, and allowed to incubate overnight. Compound at various concentrations was added the following morning and allowed to incubate on cells for 1 h. Then, NGF was added at a concentration sufficient to elicit ˜80% of a maximal response and allowed to incubate for 3 h at ambient temperature. DiscoverX PathHunter detection reagent was then added and the plate was further incubated for 1 h in the dark. The plate was then read via luminescence on the Perkin Elmer Envision.

Chain of human TrkA receptor (P04629 33-796): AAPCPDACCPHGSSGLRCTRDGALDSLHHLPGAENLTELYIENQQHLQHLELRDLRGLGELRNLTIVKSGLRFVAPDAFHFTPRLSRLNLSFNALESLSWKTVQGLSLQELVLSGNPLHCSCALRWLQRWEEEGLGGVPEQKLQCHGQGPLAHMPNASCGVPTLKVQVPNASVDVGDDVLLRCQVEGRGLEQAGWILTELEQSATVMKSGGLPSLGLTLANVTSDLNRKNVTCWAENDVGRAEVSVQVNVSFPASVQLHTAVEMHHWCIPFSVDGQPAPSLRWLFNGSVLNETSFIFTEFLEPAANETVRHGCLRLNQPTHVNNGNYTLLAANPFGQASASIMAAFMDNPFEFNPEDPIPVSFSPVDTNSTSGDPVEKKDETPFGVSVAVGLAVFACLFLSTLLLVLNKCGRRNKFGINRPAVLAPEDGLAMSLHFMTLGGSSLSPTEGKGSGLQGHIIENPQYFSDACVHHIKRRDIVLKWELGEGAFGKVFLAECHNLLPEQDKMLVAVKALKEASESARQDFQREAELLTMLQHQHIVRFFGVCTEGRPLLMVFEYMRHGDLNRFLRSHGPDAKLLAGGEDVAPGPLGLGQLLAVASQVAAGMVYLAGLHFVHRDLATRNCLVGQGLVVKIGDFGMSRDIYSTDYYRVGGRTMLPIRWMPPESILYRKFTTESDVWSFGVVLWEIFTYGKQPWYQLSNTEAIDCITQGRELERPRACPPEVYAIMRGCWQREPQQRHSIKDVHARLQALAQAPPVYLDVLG

Compound	IC50 [nM]
Cn1ccc(-c2cc(C(=O)Nc3c(-c4ccccc4)ccc4sc(C(C)(C)O)nc34)ccc2C(F)(F)F)n1 [Compound 4, N-(2-(2-Hydroxypropan-2-yl)-5-phenylbenzo[d]thiazol-4-yl)-3-(1-methyl-1H-pyrazol-3-yl)-4-(trifluoromethyl)benzamide]	67
NC(=O)c1cnc2c(NC(=O)c3cc(-c4ncccn4)c(C(F)(F)F)cc3F)c(-c3ccccc3)ccn12 [Compound 7, 8-(2-Fluoro-5-(pyrimidin-2-yl)-4-(trifluoromethyl)benzamido)-7-phenylimidazo[1,2-a]pyridine-3-carboxamide]	2.1
Cn1ccc(-c2cc(C(=O)Nc3c(-c4ccccc4)ccn4c(C(N)=O)cnc34)ccc2C(F)(F)F)n1 [Compound 12, 8-({[3-(1-methyl-1H-pyrazol-3-yl)-4-(trifluoromethyl)phenyl]carbonyl}amino)-7-phenylimidazo[1,2-a]pyridine-3-carboxamide]	5.7
Cn1ccc(-c2cc(C(=O)Nc3c(-c4ccccc4)ccn4c(CO)cnc34)ccc2C(F)(F)F)n1 [Compound 13, N-[3-(hydroxymethyl)-7-phenylimidazo[1,2-a]pyridin-8-yl]-3-(1-methyl-1H-pyrazol-3-yl)-4-(trifluoromethyl)benzamide]	2.4
Cn1ccc(-c2cc(C(=O)Nc3c(-c4ccccc4)ccn4c(C(C)(C)O)cnc34)c(F)cc2C(F)(F)F)n1 [Compound 16, 2-fluoro-N-[3-(1-hydroxy-1-methylethyl)-7-phenylimidazo[1,2-a]pyridin-8-yl]-5-(1-methyl-1H-pyrazol-3-yl)-4-(trifluoromethyl)benzamide]	0.2
Cn1ccc(-c2cc(C(=O)Nc3c(-c4ccccc4)ccn4c(C(C)(C)O)cnc34)c(Cl)cc2C(F)(F)F)n1 [Compound 17, 2-chloro-N-[3-(1-hydroxy-1-methylethyl)-7-phenylimidazo[1,2-a]pyridin-8-yl]-5-(1-methyl-1H-pyrazol-3-yl)-4-(trifluoromethyl)benzamide]	1.1
CC(C)(O)c1cnc2c(NC(=O)c3cc(-c4ccccn4)c(C(F)(F)F)cc3Cl)c(-c3ccccc3)ccn12 [Compound 18, 2-chloro-N-[3-(1-hydroxy-1-methylethyl)-7-phenylimidazo[1,2-a]pyridin-8-yl]-5-pyridin-2-yl-4-(trifluoromethyl)benzamide]	6.7
NC(=O)c1cnc2c(NC(=O)c3cc(-c4ccccn4)c(C(F)(F)F)cc3F)c(-c3ccccc3)ccn12 [Compound 21, 8-({[2-fluoro-5-pyridin-2-yl-4-(trifluoromethyl)phenyl]carbonyl}amino)-7-phenylimidazo[1,2-a]pyridine-3-carboxamide]	3.7

More lines, now with the values ahead:

IC50 [nM]	Compound
6.2	O=C(Nc1c(-c2ccccc2)ccn2c(CO)cnc12)c1cc(-c2ncccn2)c(C(F)(F)F)cc1F [Compound 8, 2-Fluoro-N-(3-(hydroxymethyl)-7-phenylimidazo[1,2-a]pyridin-8-yl)-5-(pyrimidin-2-yl)-4-(trifluoromethyl)benzamide]
4	CC(C)(O)c1cnc2c(NC(=O)c3cc(-c4ncccn4)c(C(F)(F)F)cc3F)c(-c3ccccc3)ccn12 [Compound 11, 2-Fluoro-N-(3-(2-hydroxypropan-2-yl)-7-phenylimidazo[1,2-a]pyridin-8-yl)-5-(pyrimidin-2-yl)-4-(trifluoromethyl)benzamide]
1.9	CC(C)(O)c1cnc2c(NC(=O)c3cc(-c4ccccn4)c(C(F)(F)F)cc3F)c(-c3ccccc3)ccn12 [Compound 19, 2-fluoro-N-[3-(1-hydroxy-1-methylethyl)-7-phenylimidazo[1,2-a]pyridin-8-yl]-5-pyridin-2-yl-4-(trifluoromethyl)benzamide]
16	CC(C)(O)c1cnc2c(NC(=O)c3cc(-c4ncccn4)c(C(F)(F)F)cc3Cl)c(-c3ccccc3)ccn12 [Compound 20, 2-chloro-N-[3-(1-hydroxy-1-methylethyl)-7-phenylimidazo[1,2-a]pyridin-8-yl]-5-pyrimidin-2-yl-4-(trifluoromethyl)benzamide]
